The experiment addresses T1, SmAbl2-TK (SmAbl2) (Schistosoma mansoni, UniProt D1H0Y8).
T1 construct: gene abl2; capped cRNA injected into Xenopus laevis stage VI oocytes
T1 sequence (D1H0Y8 283-538 limits assumed): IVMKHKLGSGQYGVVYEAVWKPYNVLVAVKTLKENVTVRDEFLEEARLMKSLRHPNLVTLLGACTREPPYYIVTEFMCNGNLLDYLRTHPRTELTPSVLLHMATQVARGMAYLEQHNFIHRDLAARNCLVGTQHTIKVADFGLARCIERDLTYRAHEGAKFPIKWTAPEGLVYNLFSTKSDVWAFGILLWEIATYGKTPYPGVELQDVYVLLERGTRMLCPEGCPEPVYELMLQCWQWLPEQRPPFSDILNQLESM
As to the kind of experiment: germinal vesicle breakdown (GVBD) assay, cRNA-injected Xenopus oocytes. It counts as cell-based. The settings on record: remaining GVBD-inducing activity; ND96, 19 °C, 18 h after injection, pools of 10 oocytes.

Molecules are shown by their SMILES.

For `CO[C@H]1[C@@H](OC)C[C@H](C)[C@@H](OC)C2=CC(=O)C=C(NC(=O)/C(C)=C/C=C\[C@H](OC)[C@@H](OC(N)=O)/C(C)=C/[C@@H]1C)C2=O` [Herbimycin A], the “% GVBD at 10 μM” value is on record as 90%.

For the origin of these results see publication PMC4055459, “Imatinib Treatment Causes Substantial Transcriptional Changes in Adult Schistosoma mansoni In Vitro Exhibiting Pleiotropic Effects” (PLoS Neglected Tropical Diseases, 2014).
